# Data taken from patent US11040033B2 (Gilead Sciences, Inc., priority 2017, dated 2021).
# Molecular target: T1, IDO1 (Homo sapiens, UniProt P14902)
# T1 construct: HeLa cells were treated with a test compound in the presence of IFNγ, which induces IDO1 expression; endogenous in cells; host or cells: H1-HeLa cells (ATCC #CRL-1958), induced with IFNγ
# Test: Cell-based (HeLa) assay for measurement of IDO1 inhibition (kynurenine levels in supernatant after IFNγ induction)
# Conditions: H1-HeLa cells, IFNγ-induced IDO1, 48 hour incubation, kynurenine absorbance at 480 nm; geometric mean of a minimum of four determinations
# Protocol: To measure IDO1 inhibition in tissue culture, HeLa cells were treated with a test compound in the presence of IFNγ, which induces IDO1 expression. Following incubation, cell supernatants were assayed for kynurenine levels, an indicator of IDO1 activity.
# H1-HeLa cells (ATCC #CRL-1958) were seeded in 384-well plates (Greiner #82051-282) at a volume […] (Corning #15-018-CM) supplemented with 10% FBS (Corning #35-011-CV) and 1% P/S/G (Corning #30-009-CL) at a density of 1,250 cells/well and incubated overnight at 37° C., 5% CO2/100% humidity. The following day, the test compounds were added in DMSO (0.5% final) at various concentrations, and IDO1 was inducibly expressed by the addition of 50 uL/well of 50 ng/mL of INFγ(Peprotech #300-02) in cell plating media. As a positive control, 50 uL of the cell plating media without IFNγ was added to several wells. Following a 48 hour incubation, the plates were spun down at 1,200 RPM for 5 min at 10° C. 65 μL/well of the supernatant was then transferred to new 384-well plates (Thermo #262160) that contained 10 uL/well of 30% TCA (Sigma #T0699), and the plates were sealed and incubated at 60° C. for 30 min. The plates were then centrifuged for 15 min at 2,000 RPM at 10° C. 40 μL/well of the supernatant was transferred to new 384-well plates (Thermo #262160) and was reacted with 40 μL/well of 2% (w/v) p-dimethylaminobenzaldehyde (Sigma #156417) in glacial acetic acid (Sigma #A6283). The reaction was incubated at room temperature for 10 min and absorbance at 480 nm was read using a PerkinElmer Envision plate reader.
# Data in Table 1 were normalized based on positive (−IFNγ) and negative (+IFNγ) controls and EC50 values were calculated from the fit of the dose-response curves to a four-parameter equation. All EC50 values represent geometric mean values of a minimum of four determinations. These assays generally produced results within 2-fold of the reported mean.
# T1 sequence (P14902 whole entry): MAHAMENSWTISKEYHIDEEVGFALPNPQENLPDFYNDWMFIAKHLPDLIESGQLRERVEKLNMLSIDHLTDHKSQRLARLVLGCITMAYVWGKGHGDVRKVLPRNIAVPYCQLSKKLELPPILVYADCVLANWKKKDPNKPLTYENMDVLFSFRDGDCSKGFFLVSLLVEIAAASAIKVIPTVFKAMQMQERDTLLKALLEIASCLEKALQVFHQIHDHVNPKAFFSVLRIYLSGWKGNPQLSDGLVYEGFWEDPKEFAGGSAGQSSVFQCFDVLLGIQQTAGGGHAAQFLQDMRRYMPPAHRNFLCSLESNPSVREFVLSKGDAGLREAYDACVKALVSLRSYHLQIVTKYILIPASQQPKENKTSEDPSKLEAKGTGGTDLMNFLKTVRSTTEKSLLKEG
row,SMILES,EC50
1,"Cc1ncc(-c2cccn3c(-c4cccc(F)c4F)ncc23)cc1C(=O)Nc1ccc(OC(F)(F)F)cc1 [Example 58, 5-(3-(2,3-difluorophenyl)imidazo[1,5-a]pyridin-8-yl)-2-methyl-N-(4-(trifluoromethoxy)phenyl)nicotinamide]",110 nM
2,Cc1c(F)cc(-c2cccn3c(-c4cccc(F)c4F)ncc23)cc1C(=O)Nc1ccc(F)cc1 [Example 84],75.3 nM
3,"O=C(Nc1ccc(F)cc1)c1cc(-c2cccn3c(-c4cccc(F)c4F)ncc23)cnc1C1CC1 [Example 82, 2-cyclopropyl-5-(3-(2,3-difluorophenyl)imidazo[1,5-a]pyridin-8-yl)-N-(4-fluorophenyl)nicotinamide]",17.5 nM
4,"Cc1ncc(-c2cccn3c(-c4ncccc4F)ncc23)cc1C(=O)Nc1ccc(F)cc1 [Example 19, N-(4-fluorophenyl)-5-(3-(3-fluoropyridin-2-yl)imidazo[1,5-a]pyridin-8-yl)-2-methylnicotinamide]",199 nM
5,"Cc1ncc(-c2cccn3c(-c4cccc(F)c4F)nc(Cl)c23)cc1C(=O)Nc1ccc(F)cc1 [Example 79, 5-(1-chloro-3-(2,3-difluorophenyl)imidazo[1,5-a]pyridin-8-yl)-N-(4-fluorophenyl)-2-methylnicotinamide]",118 nM
6,"Cc1nnc(-c2ncc3c(-c4ccc(C)c(C(=O)Nc5ccc(F)cc5)c4)cccn23)o1 [Example 2, N-(4-fluorophenyl)-2-methyl-5-(3-(5-methyl-1,3,4-oxadiazol-2-yl)imidazo[1,5-a]pyridin-8-yl)benzamide]",3840 nM
7,"N#Cc1ccnc(-c2ncc3c(-c4ccc(C(F)(F)F)c(C(=O)Nc5ccc(F)cc5)c4)cccn23)c1 [Example 10, 5-(3-(4-cyanopyridin-2-yl)imidazo[1,5-a]pyridin-8-yl)-N-(4-fluorophenyl)-2-(trifluoromethyl)benzamide]",712 nM
8,"Cc1ncc(-c2cccn3c(-c4cccc(F)c4F)ncc23)cc1-c1nc2ccccc2[nH]1 [Example 99, 2-(5-(3-(2,3-difluorophenyl)imidazo[1,5-a]pyridin-8-yl)-2-methylpyridin-3-yl)-1H-benzo[d]imidazole]",59.9 nM
9,"Cc1ncc(-c2cccn3c(-c4cccc(F)c4)ncc23)cc1C(=O)Nc1ccc(F)cc1 [Example 35, N-(4-fluorophenyl)-5-(3-(3-fluorophenyl)imidazo[1,5-a]pyridin-8-yl)-2-methylnicotinamide]",26.8 nM
10,"Cc1ncc(-c2cccn3c(-c4cccc(F)c4F)ncc23)cc1C(=O)Nc1ccc(Cl)cc1F [Example 64, N-(4-chloro-2-fluorophenyl)-5-(3-(2,3-difluorophenyl)imidazo[1,5-a]pyridin-8-yl)-2-methylnicotinamide]",24.3 nM
11,"Cc1ncc(-c2cccn3c(C4CCCCC4)ncc23)cc1C(=O)Nc1ccc(F)cc1 [Example 93, 5-(3-cyclohexylimidazo[1,5-a]pyridin-8-yl)-N-(4-fluorophenyl)-2-methylnicotinamide]",250 nM
12,"Cc1ccc(-c2nccn3c(-c4cccc(F)c4F)ncc23)cc1C(=O)Nc1ccc(F)cc1 [Example 51, 5-(3-(2,3-difluorophenyl)imidazo[1,5-a]pyrazin-8-yl)-N-(4-fluorophenyl)-2-methylbenzamide]",656 nM
13,O=C(Nc1ccc(F)cc1)c1nc(-c2cccn3c(-c4cccc(F)c4F)ncc23)ccc1Cl [Example 85],52 nM
14,"Cc1ccc(-c2cccn3c(-c4cccc(F)c4F)ncc23)cc1C(=O)Nc1ccc(F)cc1 [Example 34, 5-(3-(2,3-difluorophenyl)imidazo[1,5-a]pyridin-8-yl)-N-(4-fluorophenyl)-2-methylbenzamide]",29.4 nM
15,"Cc1ncc(-c2cccn3c(-c4cccc(F)c4C(F)(F)F)ncc23)cc1C(=O)Nc1ccc(F)cc1 [Example 18, 5-(3-(3-fluoro-2-(trifluoromethyl)phenyl)imidazo[1,5-a]pyridin-8-yl)-N-(4-fluorophenyl)-2-methylnicotinamide]",211 nM
16,"Cc1ccc(-c2cccn3c(-c4ccccc4)nnc23)cc1C(=O)Nc1ccc(F)cc1 [Example 9, N-(4-fluorophenyl)-2-methyl-5-(3-phenyl-[1,2,4]triazolo[4,3-a]pyridin-8-yl)benzamide]",809 nM
17,"Cc1ncc(-c2cccn3c(-c4ccc(F)cc4F)ncc23)cc1C(=O)Nc1ccc(F)cc1 [Example 89, 5-(3-(2,4-difluorophenyl)imidazo[1,5-a]pyridin-8-yl)-N-(4-fluorophenyl)-2-methylnicotinamide]",30.6 nM
18,"Cc1ncc(-c2cccn3c(-c4cccc(F)c4F)ncc23)cc1C(=O)Nc1ccccc1 [Example 66, 5-(3-(2,3-difluorophenyl)imidazo[1,5-a]pyridin-8-yl)-2-methyl-N-phenylnicotinamide]",15.3 nM
19,"Cc1nc(-c2cccc(F)c2F)n2cccc(-c3ccc(C(F)(F)F)c(C(=O)Nc4ccc(F)cc4)c3)c12 [Example 44, 5-(3-(2,3-difluorophenyl)-1-methylimidazo[1,5-a]pyridin-8-yl)-N-(4-fluorophenyl)-2-(trifluoromethyl)benzamide]",16.9 nM
20,"Cc1ncc(-c2cccn3c(-c4cccc(Cl)c4Cl)ncc23)cc1C(=O)Nc1ccc(F)cc1 [Example 86, 5-(3-(2,3-dichlorophenyl)imidazo[1,5-a]pyridin-8-yl)-N-(4-fluorophenyl)-2-methylnicotinamide]",30.8 nM
21,"Cc1ccc(-c2cccn3c(-c4ccccc4C)nnc23)cc1C(=O)Nc1ccc(F)cc1 [Example 12, N-(4-fluorophenyl)-2-methyl-5-(3-(o-tolyl)-[1,2,4]triazolo[4,3-a]pyridin-8-yl)benzamide]",403 nM

# Next, values leading:
row,EC50,SMILES
1,39 nM,Cc1ncc(-c2cccn3c(-c4cc(F)ccc4F)ncc23)cc1C(=O)Nc1ccc(F)cc1 [Example 30]
2,15.9 nM,"O=C(Nc1ccc(F)cc1)c1cc(-c2cccn3c(-c4cccc(F)c4F)ncc23)ccc1C(F)(F)F [Example 48, 5-(3-(2,3-difluorophenyl)imidazo[1,5-a]pyridin-8-yl)-N-(4-fluorophenyl)-2-(trifluoromethyl)benzamide]"
3,656 nM,"Cc1cc(NC(=O)c2cc(-c3cccn4c(-c5cccc(F)c5F)ncc34)cnc2C)ccn1 [Example 71, 5-(3-(2,3-difluorophenyl)imidazo[1,5-a]pyridin-8-yl)-2-methyl-N-(2-methylpyridin-4-yl)nicotinamide]"
4,183 nM,"O=C(Nc1ccc(F)cc1)c1cc(-c2cccn3c(-c4ccnc5ccccc45)ncc23)ccc1C(F)(F)F [Example 21, N-(4-fluorophenyl)-5-(3-(quinolin-4-yl)imidazo[1,5-a]pyridin-8-yl)-2-(trifluoromethyl)benzamide]"
5,380 nM,"Cc1ncc(-c2cccn3c(-c4cccc(F)c4F)ncc23)cc1C(=O)Nc1cccc(OC(F)(F)F)c1 [Example 72, 5-(3-(2,3-difluorophenyl)imidazo[1,5-a]pyridin-8-yl)-2-methyl-N-(3-(trifluoromethoxy)phenyl)nicotinamide]"
6,683 nM,"Cc1ccc(-c2cccn3c(-c4cccnc4)nnc23)cc1C(=O)Nc1ccc(F)cc1 [Example 11, N-(4-fluorophenyl)-2-methyl-5-(3-(pyridin-3-yl)-[1,2,4]triazolo[4,3-a]pyridin-8-yl)benzamide]"
7,5340 nM,"Cc1ccc(-c2cccn3c(-c4ccccc4C(N)=O)nnc23)cc1C(=O)Nc1ccc(F)cc1 [Example 1, 5-(3-(2-carbamoylphenyl)-[1,2,4]triazolo[4,3-a]pyridin-8-yl)-N-(4-fluorophenyl)-2-methylbenzamide]"
8,16 nM,"O=C(Nc1ccc(F)cc1)c1cc(-c2cccn3c(-c4cccc(F)c4F)ncc23)cnc1C(F)(F)F [Example 47, 5-(3-(2,3-difluorophenyl)imidazo[1,5-a]pyridin-8-yl)-N-(4-fluorophenyl)-2-(trifluoromethyl)nicotinamide]"
9,61.7 nM,"Cc1ncc(-c2cccn3c(-c4cc(F)cc(F)c4)ncc23)cc1C(=O)Nc1ccc(F)cc1 [Example 27, 5-(3-(3,5-difluorophenyl)imidazo[1,5-a]pyridin-8-yl)-N-(4-fluorophenyl)-2-methylnicotinamide]"
10,15.2 nM,"O=C(Nc1ccc(F)cc1)c1cc(-c2cccn3c(-c4cccc(F)c4F)ncc23)ccc1C1CC1 [Example 62, 2-cyclopropyl-5-(3-(2,3-difluorophenyl)imidazo[1,5-a]pyridin-8-yl)-N-(4-fluorophenyl)benzamide]"
11,591 nM,"Cc1ncc(-c2cccn3c(C4CCOCC4)ncc23)cc1C(=O)Nc1ccc(F)cc1 [Example 75, N-(4-fluorophenyl)-2-methyl-5-(3-(tetrahydro-2H-pyran-4-yl)imidazo[1,5-a]pyridin-8-yl)nicotinamide]"
